The values that follow come from paper PMC5827971 (Cell, 2017).

For assay [1], the target named is T1, CLYBL (Homo sapiens, UniProt Q8N0X4).
T1 sequence (Q8N0X4 23-340): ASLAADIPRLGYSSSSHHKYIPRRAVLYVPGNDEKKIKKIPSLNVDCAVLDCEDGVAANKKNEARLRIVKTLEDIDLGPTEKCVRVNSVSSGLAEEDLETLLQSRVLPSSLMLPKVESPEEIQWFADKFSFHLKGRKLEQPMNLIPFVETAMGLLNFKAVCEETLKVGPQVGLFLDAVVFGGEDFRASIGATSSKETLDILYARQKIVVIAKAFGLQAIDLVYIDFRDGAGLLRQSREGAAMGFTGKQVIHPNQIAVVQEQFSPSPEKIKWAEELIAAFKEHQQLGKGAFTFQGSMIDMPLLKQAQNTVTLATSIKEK
The assay is described as follows: HPLC-UV discontinuous assay, CoASH formation. The class given is biochemical. To be noted: 20 mM glyoxylate, 2.5-200 µM acyl-CoA, 20 mM Tris pH 7.5, 5 mM MgCl2, 1 mM TCEP, 37 °C.

Assay [2] has as its target T1, CLYBL. The assay is described as follows: HPLC-UV discontinuous assay, acetyl-CoA formation. It counts as biochemical. To be noted: citramalyl-CoA lyase; 0.625-80 µM substrate, 20 mM Tris pH 7.5, 5 mM MgCl2, 1 mM TCEP, 37 °C.

The structures appear in SMILES notation.

For `CC(=O)SCCNC(=O)CCNC(=O)[C@H](O)C(C)(C)COP(=O)(O)OP(=O)(O)OC[C@H]1O[C@@H](n2cnc3c(N)ncnc32)[C@H](O)[C@@H]1OP(=O)(O)O` [acetyl-CoA], the KM entry on CLYBL [1] (malate synthase) was “KM values for acetyl-CoA or propionyl-CoA, the substrates in the forward reaction”.
As to `CC(C)(COP(=O)(O)OP(=O)(O)OC[C@H]1O[C@@H](n2cnc3c(N)ncnc32)[C@H](O)[C@@H]1OP(=O)(O)O)[C@@H](O)C(=O)NCCC(=O)NCCSC(=O)C[C@](C)(O)C(=O)O` [citramalyl-CoA], the KM result on CLYBL [2] was “The KM value for citramalyl-CoA is comparable to the KM values for acetyl-CoA or propionyl-CoA”.
For `CCC(=O)SCCNC(=O)CCNC(=O)[C@H](O)C(C)(C)COP(=O)(O)OP(=O)(O)OC[C@H]1O[C@@H](n2cnc3c(N)ncnc32)[C@H](O)[C@@H]1OP(=O)(O)O` [propionyl-CoA], the KM entry on CLYBL [1] (methylmalate synthase) is “KM values for acetyl-CoA or propionyl-CoA, the substrates in the forward reaction”.
